Data: PubChem BioAssay (NCI)
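Test compounds were applied to cells in 96-well plates for 48 hours at 5 doses. TGI denotes the concentration required for complete inhibition of growth.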

Legend:
Test in all cases: NCI-60 cell line screen, 48 h
[1] = system: HOP-62 NSCLC
[2] = system: MDA-N
[3] = system: IGROV1 ovarian
[4] = system: SK-MEL-5 melanoma
[5] = system: HT29 colon
[6] = system: SNB-19 CNS
[7] = system: M14 melanoma
[8] = system: CCRF-CEM leukemia
[9] = system: 786-0 renal
[10] = system: SF-295 CNS
[11] = system: MDA-MB-435
[12] = system: SW-620 colon
[13] = system: EKVX NSCLC
[14] = system: MALME-3M melanoma
[15] = system: HCC-2998 colon
[16] = system: SF-268 CNS
[17] = system: DU-145 prostate
[18] = system: NCI-H23 lung
[19] = system: KM12 colon
[20] = system: SK-MEL-28 melanoma
[21] = system: SK-OV-3 ovarian
[22] = system: SNB-75 CNS
[23] = system: OVCAR-8 ovarian
[24] = system: SR leukemia
[25] = system: HCT-116 colon
[26] = system: SN12C renal
[27] = system: MCF7 breast
[28] = system: TK-10 renal
[29] = system: SK-MEL-2 melanoma
[30] = system: NCI-H460 lung
[31] = system: HOP-92 NSCLC
[32] = system: BT-549 breast
[33] = system: UACC-62 melanoma
[34] = system: HCT-15 colon
[35] = system: OVCAR-3 ovarian
[36] = system: A498 renal
[37] = system: RXF 393 renal
[38] = system: UACC-257 melanoma
[39] = system: OVCAR-4 ovarian
[40] = system: U251 CNS
[41] = system: T-47D breast
[42] = system: COLO 205 colon
[43] = system: OVCAR-5 ovarian
[44] = system: MOLT-4 leukemia
[45] = system: NCI-H226 lung
[46] = system: NCI/ADR-RES ovarian
[47] = system: RPMI-8226 leukemia
[48] = system: SF-539 CNS
[49] = system: MDA-MB-231 breast
[50] = system: A549 NSCLC
[51] = system: ACHN renal
[52] = system: CAKI-1 renal
[53] = system: LOX IMVI melanoma
[54] = system: UO-31 renal
[55] = system: PC-3 prostate
[56] = system: K-562 leukemia
[57] = system: NCI-H522 lung
[58] = system: HS 578T breast
[59] = system: HL-60(TB) leukemia

## N#Cc1c(-c2ccc([N+](=O)[O-])cc2)cc(-c2ccc(Nc3ccnc4cc(C(F)(F)F)ccc34)cc2)nc1N
[1]
  TGI: 51.3 µM
[2]
  TGI: 38.3 µM
[3]
  TGI: 29 µM
[4]
  TGI: > 83.3 µM
[5]
  TGI: 34.2 µM
[6]
  TGI: 34.7 µM
[7]
  TGI: 36.4 µM
[8]
  TGI: > 29.7 µM
[9]
  TGI: 15.6 µM
[10]
  TGI: 37.6 µM
[11]
  TGI: 33.3 µM
[12]
  TGI: 59.2 µM
[13]
  TGI: > 93.3 µM
[14]
  TGI: > 62.8 µM
[15]
  TGI: > 55.4 µM
[16]
  TGI: > 72 µM
[17]
  TGI: > 43.3 µM
[18]
  TGI: > 62.3 µM
[19]
  TGI: > 47.9 µM
[20]
  TGI: 59.8 µM
[21]
  TGI: > 71.6 µM
[22]
  TGI: 49.8 µM
[23]
  TGI: > 60.2 µM
[24]
  TGI: > 20 µM
[25]
  TGI: 27.5 µM
[26]
  TGI: 46.6 µM
[27]
  TGI: 10.7 µM
[28]
  TGI: > 69.8 µM
[29]
  TGI: > 59.7 µM
[30]
  TGI: > 66.5 µM
[31]
  TGI: 42 µM
[32]
  TGI: > 75.6 µM
[33]
  TGI: > 100 µM
[34]
  TGI: 23.6 µM
[35]
  TGI: 29.3 µM
[36]
  TGI: > 71.3 µM
[37]
  TGI: 51.7 µM
[38]
  TGI: > 85.2 µM
[39]
  TGI: 28.1 µM
[40]
  TGI: 21.9 µM
[41]
  TGI: 28.8 µM
[42]
  TGI: > 75.9 µM
[43]
  TGI: > 73.8 µM
[44]
  TGI: 14.5 µM
[45]
  TGI: > 70.1 µM
[46]
  TGI: 35.3 µM
[47]
  TGI: > 54.5 µM
[48]
  TGI: > 63.8 µM
[49]
  TGI: 41.7 µM
[50]
  TGI: 26.8 µM
[51]
  TGI: > 68.8 µM
[52]
  TGI: 41.3 µM
[53]
  TGI: > 63.3 µM
[54]
  TGI: 36.5 µM
[55]
  TGI: 56.9 µM
[56]
  TGI: 19.1 µM
[57]
  TGI: > 100 µM
[58]
  TGI: 66.1 µM

## O=C1Nc2cccc(Cl)c2/C1=C\c1c(Cl)nc2sccn12
[1]
  TGI: 33.8 µM
[2]
  TGI: > 100 µM
[3]
  TGI: > 100 µM
[4]
  TGI: > 100 µM
[5]
  TGI: > 100 µM
[6]
  TGI: 39.7 µM
[7]
  TGI: > 100 µM
[8]
  TGI: > 100 µM
[9]
  TGI: 24.6 µM
[10]
  TGI: > 100 µM
[11]
  TGI: > 100 µM
[12]
  TGI: > 100 µM
[13]
  TGI: > 100 µM
[14]
  TGI: > 100 µM
[15]
  TGI: > 100 µM
[16]
  TGI: 52.5 µM
[17]
  TGI: > 100 µM
[18]
  TGI: 66.3 µM
[19]
  TGI: > 100 µM
[20]
  TGI: > 100 µM
[21]
  TGI: 31 µM
[22]
  TGI: 26.3 µM
[23]
  TGI: > 100 µM
[24]
  TGI: > 100 µM
[25]
  TGI: > 100 µM
[26]
  TGI: > 100 µM
[27]
  TGI: > 100 µM
[28]
  TGI: 24.6 µM
[29]
  TGI: 30.2 µM
[30]
  TGI: > 100 µM
[31]
  TGI: 46.2 µM
[32]
  TGI: 74.9 µM
[33]
  TGI: > 100 µM
[34]
  TGI: > 100 µM
[35]
  TGI: > 100 µM
[36]
  TGI: > 100 µM
[37]
  TGI: 29.6 µM
[38]
  TGI: > 100 µM
[40]
  TGI: 21.5 µM
[41]
  TGI: > 100 µM
[42]
  TGI: > 100 µM
[43]
  TGI: > 100 µM
[44]
  TGI: > 100 µM
[46]
  TGI: > 100 µM
[47]
  TGI: > 100 µM
[48]
  TGI: 18.8 µM
[49]
  TGI: 40.3 µM
[50]
  TGI: > 100 µM
[51]
  TGI: 29.4 µM
[59]
  TGI: > 100 µM
[52]
  TGI: > 100 µM
[53]
  TGI: > 100 µM
[54]
  TGI: > 100 µM
[55]
  TGI: > 100 µM
[56]
  TGI: > 100 µM
[57]
  TGI: > 100 µM
[58]
  TGI: 57.5 µM
